The text below walks through data of US10294202B2, “Pyrrolidinones as herbicides” (FMC Corporation, priority 2013, dated 2019).

The test system of one test is cocklebur. Nature of the test: Test E preemergence herbicide test. More on the design: key: 0 = no effect, 100 = complete control. The format is in vivo, Xanthium strumarium. The source says: (§1) Seeds of plant species selected from corn (Zea mays), soybean (Glycine max), velvetleaf (Abutilon theophrasti), lambsquarters (Chenopodium album), wild poinsettia (Euphorbia heterophylla), pigweed, palmer (palmer pigweed, Amaranthus palmeri), waterhemp (common waterhemp, Amaranthus rudis), surinam grass (Brachiaria decumbens), crabgrass, large (large crabgrass, Digitaria sanguinalis), crabgrass, Brazil (Brazilian crabgrass, Digitaria horizontalis), panicum, fall (fall panicum, Panicum dichotomiflorum), foxtail, giant (giant foxtail, Setaria faberii), foxtail, green (green foxtail, Setaria viridis), goosegrass (Eleusine indica), johnsongrass (Sorghum halepense), ragweed (common ragweed, Ambrosia elatior), barnyardgrass (Echinochloa crus-galli), sandbur (southern sandbur, Cenchrus echinatus), arrowleaf […] rhombifolia), ryegrass, Italian (Italian ryegrass, Lolium multiflorum), dayflower, VA (Virginia dayflower, Commelina virginica), field bindweed (Convolvulus arvensis), morningglory (Ipomoea coccinea), nightshade (eastern black nightshade, Solanum ptycanthum), kochia (Kochia scoparia), nutsedge, yellow (yellow nutsedge, Cyperus esculentus), cocklebur (common cocklebur, Xanthium strumarium), smartweed (ladysthumb smartweed, Polygonum Persicaria) and beggarticks (hairy beggarticks, Bidens pilosa), were planted into a silt loam soil and treated preemergence with test chemicals formulated in a non-phytotoxic solvent mixture which included a surfactant. Treated plants and controls were maintained in a greenhouse for 21 days, after which time all species were compared to controls and visually evaluated. Plant response ratings, summarized in Table E, are based on a scale of 0 to 100 where 0 is no effect and 100 is complete control. A dash (-) response means no test result.

Another test has as its system smartweed. Nature of the test: Test E preemergence herbicide test. It is filed as in vivo, Polygonum Persicaria.
Source text: as §1

The test system of the next test is sedge, umbrella. As to the kind of experiment: Test F flood (paddy) test. The format is in vivo, Cyperus difformis. The settings on record: 21 d, scale 0-100. The source says:
(§2) Three plastic pots (ca. 16-cm diameter) per rate were partially filled with sterilized Tama silt loam soil comprising a 35:50:15 ratio of sand, silt and clay and 2.6% organic matter. Separate plantings for each of the three pots were as follows. Seeds from the U.S. of monochoria (Monochoria vaginalis), sedge, umbrella (small-flower umbrella sedge, Cyperus difformis), bulrush, […] bulrush, Scirpus juncoides), and […] (purple […] coccinea), were planted into one 16-cm pot for each rate. Seeds from the U.S. of flatsedge, rice (rice flatsedge, Cyperus iria), sprangletop, Brdd. (bearded sprangletop, Leptochloa fascicularis), one stand of 9 or 10 water seeded rice seedlings (Rice, W.S. Jap, Oryza sativa cv. 'Japonica-[…]' or Rice, W.S. Ind, 'Indica'), and two stands of 3 or 4 seedlings of rice, transplanted (transplanted rice, Oryza sativa cv. 'Japonica-[…]') were planted into one 16-cm pot for each rate. Seeds from the U.S. of barnyardgrass (Echinochloa crus-galli), […] (common […], Alisma plantago-aquatica), and watergrass, late (late watergrass, Echinochloa oryzicola) were planted into one 16-cm pot for each rate. Plantings were sequential so that crop and weed species were at the 2.0 to 2.5-leaf stage at time of treatment. Potted plants were grown in a greenhouse with day/night temperature settings of 30/27° C., and supplemental balanced lighting was provided to maintain a 16-h photoperiod. Test pots were maintained in the greenhouse until test completion. At time of treatment, test pots were flooded to 3 cm above the soil surface, treated by application of test compounds directly to the paddy water, and then maintained at that water depth for the duration of the test. Effects of treatments on rice and weeds were visually evaluated by comparison to untreated controls after 21 d. Plant response ratings, summarized in Table F, are based on a scale of 0 to 100 where 0 is no effect and 100 is complete control. A dash (-) response means no test result.

A further test concerns bulrush, hardstem. Nature of the test: Test F flood (paddy) test. The format is in vivo, Scirpus juncoides. Conditions: 21 d, scale 0-100.
Source text: as §2

In the next test the test system is Rice, W.S. Jap. As to the kind of experiment: Test F flood (paddy) test. It is filed as in vivo, Oryza sativa cv. Japonica—M202. Conditions: 21 d, scale 0-100. The gist of the method: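 Greenhouse paddy, 30/27 °C day/night, 16-h light; sterilized Tama silt loam, 2.6% OM. Plants at 2.0–2.5 leaves; flood 3 cm, compound added directly to water. Visual score at 21 d, 0 = no effect, 100 = complete control, relative to untreated.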

A further test has as its system barley (winter barley). Nature of the test: Test C postemergence herbicide test. It is filed as in vivo, Hordeum vulgare. The text has this: At the same time, plants selected from these crop and weed species and also barley (winter barley, Hordeum vulgare), […]), chickweed (common chickweed, Stellaria media), deadnettle (henbit deadnettle, Lamium amplexicaule), and canarygrass (littleseed canarygrass, Phalaris minor) were planted in pots containing Redi-Earth® planting medium (Scotts Company, 14111 Scottslawn Road, Marysville, Ohio 43041) comprising spaghnum peat moss, vermiculite, wetting agent and starter nutrients and treated with postemergence applications of test chemicals formulated in the same manner. Plants ranged in height from 2 to 18 cm (1- to 4-leaf stage) for postemergence treatments. Treated plants and controls were maintained in a greenhouse for 13 to 15 days, after which time all species were compared to controls and visually evaluated. Plant response ratings, summarized in Table C, are based on a scale of 0 to 100 where 0 is no effect and 100 is complete control. A dash (-) response means no test result.

[1] abbreviates: 31 g ai/ha, scale 0 (no effect) to 100 (complete control).
Setting [2] is: 62 g ai/ha, scale 0 to 100 (0 no effect, 100 complete control).
Where [3] appears, read: 125 g ai/ha, scale 0 to 100 (0 no effect, 100 complete control).
The mark [4] stands for this setting: 250 g ai/ha, scale 0 to 100 (0 no effect, 100 complete control).

Take `O=C1NCC(c2ccc(Cl)c(Cl)c2)C1C(=O)Nc1ccccc1F` (racemic) [Compound 14]: the “Plant response rating, Cocklebur” value in the test on cocklebur (62 g ai/ha), with cocklebur (125 g ai/ha) and with cocklebur (250 g ai/ha) was 0 each time. Besides, the “Plant response rating, Smartweed” value with smartweed (125 g ai/ha) is reported as 0.

With `O=C1NCCC1C(=O)N(c1ccc(F)c(F)c1)c1ccccc1F` (stereo not shown) [Compound 5, N-(3,4-difluorophenyl)-N-(2-fluorophenyl)-2-oxo-3-pyrrolidinecarboxamide], the “Plant response rating, Sedge, Umbrella” value came to 0 in the test with sedge, umbrella (125 g ai/ha); 0 in the test with sedge, umbrella (250 g ai/ha); 0 in the test with sedge, umbrella (500 g ai/ha); 0 with sedge, umbrella (1000 g ai/ha); 0 with sedge, umbrella (2000 g ai/ha).

As for `O=C1NCC(c2ccc(F)c(F)c2)C1C(=O)Nc1cccc(F)c1F` (stereo not shown) [Compound 17, N-(2,3-difluorophenyl)-4-(3,4-difluorophenyl)-2-oxo-3-pyrrolidinecarboxamide], the “Plant response rating, Cocklebur” value in the test on cocklebur (16 g ai/ha), in the test with cocklebur (31 g ai/ha), with cocklebur (62 g ai/ha) and in the test with cocklebur (125 g ai/ha) was 0 throughout. The “Plant response rating, Bulrush, Hardstem” value in the test with bulrush, hardstem (125 g ai/ha) was determined as 0; in the test with bulrush, hardstem (250 g ai/ha), 0; in the test with bulrush, hardstem (500 g ai/ha), 0; in the test on bulrush, hardstem (1000 g ai/ha), 0; in the test on bulrush, hardstem (2000 g ai/ha) it was 40. The “Plant response rating, Rice, W.S. Jap” value with Rice, W.S. Jap (125 g ai/ha) was 0; with Rice, W.S. Jap (250 g ai/ha), 15; with Rice, W.S. Jap (500 g ai/ha) it was 15; with Rice, W.S. Jap (1000 g ai/ha), 60; with Rice, W.S. Jap (2000 g ai/ha), 85. Moreover, the “Plant response rating, Sedge, Umbrella” value in the test with sedge, umbrella (125 g ai/ha) was determined as 0; with sedge, umbrella (250 g ai/ha), 0; in the test with sedge, umbrella (500 g ai/ha), 0; in the test on sedge, umbrella (1000 g ai/ha), 0; with sedge, umbrella (2000 g ai/ha) it was 20. Besides, the “Plant response rating, Barley” value in the test on barley (winter barley) (setting [1]), with barley (winter barley) (setting [2]), in the test with barley (winter barley) (setting [3]) and in the test with barley (winter barley) (setting [4]) was 0 in each case.

On to `O=C1NCC(c2cc(F)c(F)c(F)c2)C1C(=O)Nc1cccc(F)c1F` (stereo not shown) [Compound 48], for which the “Plant response rating, Barley” value worked out at 0 in the test with barley (winter barley) (16 g ai/ha, scale 0 to 100 (0 no effect, 100 complete control)); 0 with barley (winter barley) (setting [1]); 0 in the test with barley (winter barley) (setting [2]); 0 with barley (winter barley) (setting [3]).

For the molecule `O=C1NCC(c2cc(F)c(F)cc2F)C1C(=O)Nc1cccc(F)c1F` (stereo not shown) [Compound 50], the “Plant response rating, Barley” value in the test on barley (winter barley) (setting [1]), in the test on barley (winter barley) (setting [2]), with barley (winter barley) (setting [3]) and with barley (winter barley) (setting [4]) was 0 each time.

`O=C1NCC(c2ccc(Cl)c(F)c2)C1C(=O)Nc1cccc(F)c1F` (stereo not shown) [Compound 52]: the “Plant response rating, Barley” value was found to be 0 in the test on barley (winter barley) (setting [1]), 0 in the test on barley (winter barley) (setting [2]), 0 in the test on barley (winter barley) (setting [3]) and 15 with barley (winter barley) (setting [4]).

As to `O=C1NCC(c2ccc(F)c(Cl)c2)C1C(=O)Nc1ccccc1F` (stereo not shown) [Compound 60], the “Plant response rating, Barley” value stood at 0 with barley (winter barley) (setting [1]), 0 with barley (winter barley) (setting [2]) and 20 in the test on barley (winter barley) (setting [3]).

Consider `O=C1NCC(c2ccc(C(F)(F)F)cc2)C1C(=O)Nc1cccc(F)c1F` (stereo not shown) [Compound 80, N-(2,3-difluorophenyl)-2-oxo-4-[4-(trifluoromethyl)phenyl]-3-pyrrolidinecarboxamide], for which the “Plant response rating, Cocklebur” value in the test with cocklebur (16 g ai/ha), in the test with cocklebur (62 g ai/ha), with cocklebur (125 g ai/ha) and in the test on cocklebur (250 g ai/ha) was 0 each time. Also, the “Plant response rating, Smartweed” value in the test with smartweed (16 g ai/ha) amounted to 0; with smartweed (31 g ai/ha), 0; with smartweed (62 g ai/ha), 20; in the test on smartweed (250 g ai/ha) it was 40.

Turning to `O=C1NC[C@H](c2cccc(C(F)(F)F)c2)[C@H]1C(=O)Nc1cccc(F)c1F` [Compound 206], the “Plant response rating, Cocklebur” value with cocklebur (31 g ai/ha), in the test with cocklebur (62 g ai/ha), with cocklebur (125 g ai/ha) and in the test on cocklebur (250 g ai/ha) was 0 throughout.

As to `CN1CC(c2ccc(F)c(F)c2)C(C(=O)Nc2cccc(F)c2F)C1=O` (stereo not shown) [Compound 303], the “Plant response rating, Bulrush, Hardstem” value stood at 0 in the test with bulrush, hardstem (62 g ai/ha); 0 in the test on bulrush, hardstem (125 g ai/ha); 70 in the test on bulrush, hardstem (250 g ai/ha); 80 in the test on bulrush, hardstem (500 g ai/ha). Further, the “Plant response rating, Sedge, Umbrella” value was determined as 0 in the test with sedge, umbrella (62 g ai/ha); 0 with sedge, umbrella (125 g ai/ha); 0 in the test with sedge, umbrella (250 g ai/ha); 0 in the test on sedge, umbrella (500 g ai/ha).
